Experimental findings from US20240360146A1, “BRUTON'S TYROSINE KINASE AND MUTANT DEGRADER, COMPOSITION AND APPLICATION THEREOF” (HANGZHOU HEALZEN THERAPEUTICS CO., LTD., priority 2021, published 2024) are described below.

Bounds are passed on as bounds.

For one series, the target named is T1, BTK (Homo sapiens, UniProt Q06187).
T1 construct: endogenous in cells; host or cells: Mino cells
Description: BTK degradation activity test in Mino cells. It is filed as cell-based. Conditions: 16 h incubation, Western blot or Elisa. Summed up:
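Mino cells treated with a concentration series of compound for 16 h, then lysed; total protein by BCA. BTK quantified by Western blot or ELISA, degradation rate calculated against blank control, and DC50 fitted from the degradation curve.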
A general note: A western blot detects proteins with antibodies after separation by electrophoresis.

In another series the test system is Mino cells. Description: Inhibitory activity on Mino cell proliferation (MTS). It is filed as cell-based. Conditions: Homo sapiens, 168 h incubation. A digest of the protocol:
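Cells seeded at 10000/well, treated with compounds from 1000 nM (4-fold, 8 points) for 72 h (OCI-LY10) or 168 h (Mino) at 37° C. MTS added for 2 h, stopped with SDS, absorbance read at 490 and 650 nm; IC50 from dose-response fit.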

Series [1] can be described thus: Stability of compounds in human liver microsome. It is filed as in vitro ADME. Particulars: human liver microsomes, NADPH, 37° C., sampling 0-120 min; read-out: Human liver microsome T1/2. As for the experimental part:
Compound to be tested: the compound to be tested (1 mg) was dissolved in DMSO (10 mL) to formulate to 0.1 mg/mL.
Internal standard compound: the internal standard compound (1 mg) was dissolved in DMSO (10 mL), 10 μL was taken and diluted to 10 mL to formulate to 100 ng/mL.
NADPH solution: NADPH (2.08 mg) was dissolved in PBS (50 μL) buffer to formulate to 50 mM.
Under the condition of ice bath, 1 mg of human liver microparticles was add to PBS (1 mL) buffer, then NADPH (20 μL) was added, and incubated at 37° C. for 5 min. 10 μL of the compound to be tested was added, and then samples were taken at 0, 15, 30, 60 and 120 min respectively. 10 μL of the solution was taken with a pipette each time and added to 490 μL of the solution containing the internal standard compound. The resulting solution was vortexed and then placed on ice, and then sampling at another time point continues. All samples were centrifuged at 10,000 rpm for 10 min, and the supernatant was taken for LC/MS testing. The metabolism of the compound in liver microsomes was calculated based on the peak area.
(Liver microsomes are vesicles of endoplasmic reticulum, rich in cytochrome P450 enzymes.)

A further series concerns OCI-LY10 cells. Description: Inhibitory activity on OCI-LY10 cell proliferation (MTS). It is filed as cell-based. Conditions: Homo sapiens, 72 h. As for the experimental part: The anti-tumor efficacy of the compounds was tested by measuring their inhibitory effects on OCI-LY10 and Mino cell proliferation. OCI-LY10 and Mino cells were cultured in RPMI-1640 medium containing 10% fetal calf serum. OCI-LY10 and Mino cells were digested, inoculated in a 96-well plate at a cell concentration of 10000 cells/well, and incubated overnight at 37° C., 5% CO2. Compounds of different concentrations (1000 nM, 4-fold dilution, 8 points) were added to the 96-well plate and incubated for 72 h (LY10) or 168 h (Mino) at 37° C. and 5% CO2, and then 20 uL of MTS was added to each well. After incubation for 2 h, 25 μl of 10% SDS was added to each well to terminate the reaction. The absorbance at 490 nm and 650 nm were measured with a microplate reader. IC50 was calculated using GraphPad Prism 5.0.

T1 sequence (Q06187 whole entry): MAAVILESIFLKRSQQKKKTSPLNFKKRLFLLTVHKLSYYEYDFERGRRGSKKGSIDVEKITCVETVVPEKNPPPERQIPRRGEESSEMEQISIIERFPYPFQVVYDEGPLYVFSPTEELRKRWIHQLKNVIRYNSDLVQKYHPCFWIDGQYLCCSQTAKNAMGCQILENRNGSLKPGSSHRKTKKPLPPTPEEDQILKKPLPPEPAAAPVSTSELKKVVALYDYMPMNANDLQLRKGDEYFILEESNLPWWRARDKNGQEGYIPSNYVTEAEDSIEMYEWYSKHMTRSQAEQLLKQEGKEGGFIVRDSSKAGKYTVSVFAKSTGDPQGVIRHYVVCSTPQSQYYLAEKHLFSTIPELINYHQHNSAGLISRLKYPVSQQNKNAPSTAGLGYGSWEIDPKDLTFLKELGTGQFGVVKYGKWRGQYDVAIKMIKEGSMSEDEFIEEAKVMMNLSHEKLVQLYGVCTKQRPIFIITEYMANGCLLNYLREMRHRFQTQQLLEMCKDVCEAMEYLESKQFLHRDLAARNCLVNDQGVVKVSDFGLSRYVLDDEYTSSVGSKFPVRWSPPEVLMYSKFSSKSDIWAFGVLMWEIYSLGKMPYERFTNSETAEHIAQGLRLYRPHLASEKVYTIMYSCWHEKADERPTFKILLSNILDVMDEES

What is called DC50 is the midpoint of the concentration-degradation curve. Read a low DC50 as degradation at low concentration. Usually IC50 stands for the concentration at which inhibition is half-maximal. Read a high IC50 as weaker potency in that assay. At BTK, `CN1CCN([C@@H]2CCCN(c3nnc(C(N)=O)c(Nc4ccc(N5CCN(CC6CCN(c7ccc8c(c7)C(=O)N(C7CCC(=O)NC7=O)C8=O)CC6)CC5)c(F)c4)n3)C2)C1=O` (stereo partly drawn) [Compound 134, 5-((4-(4-((1-(2-(2,6-dioxopiperidin-3-yl)-1,3-dioxoisoindolin-5-yl)piperidin-4-yl)methyl)piperazin-1-yl)-3-fluorophenyl)amino)-3-((R)-3-(3-methyl-2-oxoimidazolin-1-yl)piperidin-1-yl)-1,2,4-triazin-6-carboxamide] registered a DC50 below 1 nM. Inhibition with Mino cells was half-maximal at 1.72 nM (IC50). The half-life at 0.97 µg/mL in series [1] is above 30 min.

At BTK, `Cc1ccc(C(=O)N2CCC(CN3CCN(c4ccc(Nc5nc(N6CCC[C@@H](N7CCN(C)C7=O)C6)nnc5C(N)=O)cc4F)CC3)C2)cc1N1CCC(=O)NC1=O` (stereo partly drawn) [Compound 150, 5-((4-(4-((1-(3-(2,4-dioxotetrahydropyrimidin-1(2H)-yl)-4-methylbenzoyl)pyrrolidin-3-yl)methyl)piperazin-1-yl)-3-fluorophenyl)amino)-3-((R)-3-(3-methyl-2-oxoimidazolin-1-yl)piperidin-1-yl)-1,2,4-triazin-6-carboxamide] returned a DC50 below 1 nM. Besides, in the series on Mino cells, 1.91 nM corresponded to half-maximal inhibition (IC50). In addition, in series [1], the half-life at 0.97 µg/mL was above 30 min.

As for `CN1CCN([C@@H]2CCCN(c3nnc(C(N)=O)c(Nc4ccc(N5CCN(CC6CCN(c7ccc8c(c7)CN(C7CCC(=O)NC7=O)C8=O)CC6)CC5)c(F)c4)n3)C2)C1=O` (stereo partly drawn) [Compound 167, 5-((4-(4-((1-(2-(2,6-dioxopiperidin-3-yl)-1-oxoisoindolin-5-yl)piperidin-4-yl)methyl)piperazin-1-yl)-3-fluorophenyl)amino)-3-((R)-3-(3-methyl-2-oxoimidazolidin-1-yl)piperidin-1-yl)-1,2,4-triazin-6-carboxamide], on BTK, the DC50 was below 1 nM. Further, the IC50 stood at 0.45 nM with OCI-LY10 cells and 2.42 nM in the series with Mino cells.

Turning to `CN1CCN([C@@H]2CCCN(c3nnc(C(N)=O)c(Nc4ccc(N5CCN(CC6CCN(c7ccc8c(c7)C(=O)N(C7CCC(=O)NC7=O)C8)CC6)CC5)c(F)c4)n3)C2)C1=O` (stereo partly drawn) [Compound 168, 5-((4-(4-((1-(2-(2,6-dioxopiperidin-3-yl)-3-oxoisoindolin-5-yl)piperidin-4-yl)methyl)piperazin-1-yl)-3-fluorophenyl)amino)-3-((R)-3-(3-methyl-2-oxoimidazolidin-1-yl)piperidin-1-yl)-1,2,4-triazin-6-carboxamide], the DC50 at BTK was below 1 nM. For the same compound, the IC50 came out at 0.79 nM in the series with OCI-LY10 cells and 3.77 nM with Mino cells.

On to `CN1CCN([C@@H]2CCCN(c3nnc(C(N)=O)c(Nc4ccc(N5CCN(CC6CCN(c7cc8c(cc7F)C(=O)N(C7CCC(=O)NC7=O)C8=O)CC6)CC5)c(F)c4)n3)C2)C1=O` (stereo partly drawn) [Compound 170, 5-((4-(4-((1-(2-(2,6-dioxopiperidin-3-yl)-6-fluoro-1,3-dioxoisoindolin-5-yl)piperidin-4-yl)methyl)piperazin-1-yl)-3-fluorophenyl)amino)-3-((R)-3-(3-methyl-2-oxoimidazolidin-1-yl)piperidin-1-yl)-1,2,4-triazin-6-carboxamide], for which the DC50 on BTK was below 1 nM. Besides, the values for the IC50 with OCI-LY10 cells and with Mino cells were 1.25 nM and 4.64 nM, respectively.

`CN1CCN([C@@H]2CCCN(c3nnc(C(N)=O)c(Nc4ccc(N5CCN(CC6CCN(c7ccc(C(=O)NC8CCC(=O)NC8=O)nc7)C6)CC5)c(F)c4)n3)C2)C1=O` (stereo partly shown) [Compound 173]: the DC50 on BTK is below 1 nM. In addition, the half-life at 0.97 µg/mL in series [1] is above 30 min.

`CN1CCN([C@@H]2CCCN(c3nnc(C(N)=O)c(Nc4ccc(N5CCN(CC6CCN(c7ccc(C(=O)NC8CCC(=O)NC8=O)c8c7OCO8)CC6)CC5)c(F)c4)n3)C2)C1=O` (stereo partly shown) [Compound 177] registered a DC50 on BTK below 1 nM. In addition, the IC50 with Mino cells is 2.99 nM. Moreover, the half-life at 0.97 µg/mL in series [1] was above 30 min.

On to `Cc1cc(N2CCC(CN3CCN(c4ccc(Nc5nc(N6CCC[C@@H](N7CCN(C)C7=O)C6)nnc5C(N)=O)cc4F)CC3)CC2)ccc1C(=O)NC1CCC(=O)NC1=O` (stereo partly drawn) [Compound 180, 5-((4-(4-((1-(4-((2,6-dioxopiperidin-3-yl)carbamoyl)-3-methylphenyl)piperidin-4-yl)methyl)piperazin-1-yl)-3-fluorophenyl)amino)-3-((R)-3-(3-methyl-2-oxoimidazolidin-1-yl)piperidin-1-yl)-1,2,4-triazin-6-carboxamide], for which the DC50 on BTK was below 1 nM. In addition, the half-maximal inhibitory concentration (IC50) was below 1 nM in the series with OCI-LY10 cells and 1.07 nM in the series with Mino cells.

Turning to `CN1CCN([C@@H]2CCCN(c3nnc(C(N)=O)c(Nc4ccc(N5CCN(CC6CCN(c7ccc(N8CCC(=O)NC8=O)cn7)CC6)CC5)c(F)c4)n3)C2)C1=O` [Compound 196, (R)-5-((4-(4-((1-(5-(2,4-dioxotetrahydropyrimidin-1(2H)-yl)pyridin-2-yl)piperidin-4-yl)methyl)piperazin-1-yl)-3-fluorophenyl)amino)-3-(3-(3-methyl-2-oxoimidazolidin-1-yl)piperidin-1-yl)-1,2,4-triazin-6-carboxamide], the DC50 on BTK is below 1 nM. The IC50 in the series with OCI-LY10 cells was determined as 0.52 nM; in the series on Mino cells, 3.77 nM.

Take `CN1CCN([C@@H]2CCCN(c3nnc(C(N)=O)c(Nc4ccc(N5CCN(CC6CCN(c7ccc(NC8CCC(=O)NC8=O)nc7)CC6)CC5)c(F)c4)n3)C2)C1=O` (stereo partly drawn) [Compound 202, 5-((4-(4-((1-(6-((2,6-dioxopiperidin-3-yl)amino)pyridin-3-yl)piperidin-4-yl)methyl)piperazin-1-yl)-3-fluorophenyl)amino)-3-((R)-3-(3-methyl-2-oxoimidazolidin-1-yl)piperidin-1-yl)-1,2,4-triazin-6-carboxamide]: the DC50 at BTK was below 1 nM. The results for the IC50 in the series on OCI-LY10 cells and in the series with Mino cells were 1.05 nM and 6.83 nM, respectively.

`CN1CCN([C@@H]2CCCN(c3nnc(C(N)=O)c(Nc4ccc(N5CCN(CC6CCN(c7ccc(NC8CCC(=O)NC8=O)cn7)CC6)CC5)c(F)c4)n3)C2)C1=O` (stereo partly drawn) [Compound 203, 5-((4-(4-((1-(5-((2,6-dioxopiperidin-3-yl)amino)pyridin-2-yl)piperidin-4-yl)methyl)piperazin-1-yl)-3-fluorophenyl)amino)-3-((R)-3-(3-methyl-2-oxoimidazolidin-1-yl)piperidin-1-yl)-1,2,4-triazin-6-carboxamide]: at BTK, the DC50 is below 1 nM. Further, the results for the IC50 in the series on OCI-LY10 cells and with Mino cells were 2.65 nM and 1.25 nM, respectively.

Regarding `CN1CCN([C@@H]2CCCN(c3nnc(C(N)=O)c(Nc4ccc(N5CCN(CC6CCN(c7ccc8c(c7)n(C)c(=O)n8C7CCC(=O)NC7=O)C6)CC5)c(F)c4)n3)C2)C1=O` (stereo partly drawn) [Compound 218, 5-((4-(4-((1-(1-(2,6-dioxopiperidin-3-yl)-3-methyl-2-oxo-2,3-dihydro-H-benzo[d]imidazol-5-yl)pyrrolidin-3-yl)methyl)piperazin-1-yl)-3-fluorophenyl)amino)-3-((R)-3-(3-methyl-2-oxoimidazolidin-1-yl)piperidin-1-yl)-1,2,4-triazin-6-carboxamide], on BTK, the DC50 was below 1 nM. In addition, the half-life at 0.97 µg/mL in series [1] was above 30 min.
